The subject of test [1] is soybean explants inoculated with Agrobacterium harboring pMON73691 (DMO and GFP genes). Briefly: Selection of pMON73691-inoculated soybean explants with 2,4-D or dicamba in liquid medium, GFP+ buds. The conditions noted are these: selective agent 0.01 mg/L; 375 explants inoculated; pMON73691. It is filed as cell-based. The method, then:
Freshly isolated soybean explants (mature embryo axes without cotyledons) were inoculated with Agrobacterium strain ABI harboring pMON73691 (containing DMO and GFP genes). After 3-d co-culture with Agrobacterium at 23° C. and a photoperiod of 16-h light and 8-h dark, the explants were cultured in liquid delay medium which contained modified woody plant medium supplemented with 5 mg/l BAP, 200 mg/l carbenicillin, 200 mg/l cefotaxime and 100 mg/l ticarcillin. The explants were in the delay medium for 4 days. They were then transferred to liquid selection medium in PLANTCONs. The selection medium was the same as the delay medium except of addition of various levels of 2,4-D (0.01, 0.1, 1.0 or 2.0 mg/L) or 0.01 mg/L dicamba as shown in Table 9 below. Each PLANTCON contained 60 ml of the selection medium and one piece of foam sponge with 5 slits. Twenty-five explants were evenly inserted into the slits. The cultures were maintained at 28° C. and a photoperiod of 16-h light and 8-h dark, and were examined periodically under a […] equipped for detecting GFP expressing tissues.

Test [2] deals with soybean cells transformed with pMON73691. As for the experimental part: Mature seeds of soybean [Glycine max (L.) Merrill] cv. A3525 were imbibed, sterilized, and germinated at room temperature as set forth below. Other examples of soybean genotypes that can readily be used include, but are not limited to, Jack, Williams, Bert, Thorne, Granite, Lambert, Chapman, and Kunitz. Briefly, dry seeds (about 770 g) were soaked for 3 min in 2 L of 200 ppm sodium hypochlorite solution made from commercially available Clorox. The solution was drained and the seeds were set side for about 2 h. About 2 L of bean sterilization/germination medium was then added to the seeds. After about 9-10 h, seeds were ready for hand excision of explants. The bean germination medium contained the following in mg/L—NH4NO3: 240, KNO3: 505, CaCl2.2H2O: 176, MgSO4.7H2O: 493, KH2PO4: 27, H3BO3: 1.86, Na2MoO4.2H2O: 0.216, MnSO4.H2O: 5.07, ZnSO4. 7H2O: 2.58, FeSO4.7H2O: 2.502, KI: 0.249, Na2EDTA. 2H2O: 3.348, CuSO4.5H2O: 0.0008, CoCl2.6H2O: 0.0008, B1: 1.34, B3: 0.5, B6: 0.82, Bravo (75% WP; Diamond Shamrock Company, Cleveland, Ohio): 30, Captan (50% WP; Micro Flo Company, Lakeland, Fla.): 30, Cefotaxime: 125, and Sucrose: 25000, pH 5.8).
The binary vectors described above were mobilized into disarmed Agrobacterium tumefaciens strain C58 (ABI). Agrobacterium inoculum for infection was prepared as follows: 250 ml of LB medium (Luria-Bertani; Difco, Detroit, Mich.) containing 50 mg/l kanamycin (Sigma, St. Louis, Mo.) and 75 mg/l spectinomycin (Sigma, St. Louis, Mo.) was inoculated with 0.5 ml of Agrobacterium stock in glycerol (Acros Organics, Geel, Belgium) and was shaken at 200 rpm at 28° C. for approximately 20-22 h until the OD660 reached 0.8 to 1.0. The Agrobacterium broth was then centrifuged for 25 min at 3500 rpm (about 3565 g) at 2-4° C. After removing the supernatant, the Agrobacterium pellet was re-suspended in inoculation medium containing ⅖× of the macro nutrients, 1/10× of the micro nutrients and vitamins of Gamborg's B5 medium, supplemented with 3.9 g/l MES (Sigma, St. Louis, Mo.), and 30 g/l glucose (PhytoTechnology Laboratories, Shawnee Mission, Kans.), pH 5.4. Lipoic acid (Sigma, St. Louis, Mo.) was added to the Agrobacterium suspension to a final concentration of 0.25 mM after the density of the Agrobacterium cell suspension was adjusted to an OD660 of 0.30 to 0.35.
Agrobacterium-infection and co-cultivation of the explants were conducted as follows: about 100 excised explants were dispensed into the lid of a sterile plastic culture vessel PLANTCON (MP Biomedicals, LLC, Irvine, Calif.). Five ml of Agrobacterium inoculum was added to the explants in each PLANTCON lid. The explants were then sonicated for 20 sec in a sonicator (Ultrasonic Multi Cleaner, Model W-113, Honda, Japan). One piece of Whatmann #1 filter paper (Whatman Inc., Clifton, N.J.) cut to the size of the PLANTCON bottom was placed in the bottom part of the PLANTCON. The explants were transferred from the lid onto the filter paper with the Agrobacterium inoculum. The PLANTCON s were then incubated in a Percival incubator at 16 h light (at about 85-90 μE) and 8 h dark photoperiod and at 23° C. for 2 to 4 d for co-cultivation.
After a co-cultivation period of 2-4 days, explants were first cultured on a medium without dicamba (delay medium) for 3-5 d before being transferred to the selection medium with dicamba. Until transfer from delay medium to selection medium, the explants were kept in the same PLANTCON used for co-cultivation, but 10 or 12 ml of the delay medium was added to each PLANTCON. Alternatively, the explants were transferred to new PLANTCONs, each containing one piece of autoclaved felt (Jo-Ann Fabrics & Crafts, Madison, Wis.)) and 30 ml of the delay medium.

The test system of test [3] is Wild type Arabidopsis var. Columbia. The conditions noted are these: 1.0 mg/L in the culture medium; FIG. 8. The method, then:
The susceptibility of Arabidopsis to different levels of dicamba was first tested. Wild type Arabidopsis var. Columbia seeds were plated on plant tissue culture medium containing various levels of dicamba. […] Arabidopsis plants were then transformed with the constructs containing DMO polynucleotides using the floral dip method (Clough and Bent, 1998). R1 seeds were plated on the culture medium containing up to 4 mg/L of dicamba.

Structures are written as SMILES.

For `COc1c(Cl)ccc(Cl)c1C(=O)O` [dicamba, 3,6-dichloro-o-anisic acid], the “# Explants w/GFP + buds/young shoots at 48DAI” value in test [1] turned out to be 28. In addition, the dicamba-tolerant shoots harvested in test [2] (0.01 mg/l in selection medium, from 800 explants, pMON73691) is recorded as 30. The tolerant shoots harvested result in test [2] (0.02 mg/l in selection medium, pMON73691) is recorded as “few tolerant shoots were harvested”. For the same compound, in test [2] (0.05 or 0.1 mg/l in selection medium, pMON73691), the tolerant shoots obtained result was “no tolerant shoots were obtained”. The “tolerant shoots that formed roots on rooting medium and were transferred to soil” value in test [2] (of 30 shoots selected on 0.01 mg/l) is given as “Twelve”. The “plants positive for DMO-encoding polynucleotides” value in test [2] (of ten tested, selected on 0.01 mg/l) was “seven”. Further, the “concentration most efficacious for selecting dicamba-tolerant shoots” value in test [2] (soybean explants, pMON73691) was no more than 0.01 mg/L. In test [3], the “susceptibility of wild type Arabidopsis” value is “quite susceptible”.

The values above are taken from patent USRE44971E1, “Method for selection of transformed cells” (priority 2006, dated 2014).
